According to patent publication US10676468B2, “N-(3-heteroarylaryl)-4-arylarylcarboxamides and analogs as hedgehog pathway inhibitors and use thereof” (IMPACT Therapeutics, Inc., priority 2012, dated 2020):

Legend:
[1] = test system: Hedgehog Signaling Pathway; assay: SAG-induced differentiation of C3H10T1/2 cells into osteoblastic cells, intracellular alkaline phosphatase activity; format: cell-based, mouse; settings: Mus musculus, C3H 10T1/2, 120 h, 1 μM SAG, 5 days, alkaline phosphatase activity (OD405), read-out: IC50 values of compounds that inhibit Hh pathway
From the text: (§1) The Application of SAG to Induce Pluripotent Mesenchymal Mouse Embryonic Cell C3H/10T1/2 to Differentiate into Osteoblastic Cells for the Determination of the Inhibitory Activity of N-(3-(1H-benzo[d]imidazol-2-yl)-4-chlorophenyl)-2-methyl-4-((2S,6R)-2,6-dimethylmorpholino)benzamide and Analogs on Hedgehog Signaling Pathway
The intracellular alkaline phosphatase activity is a reliable indication of the differentiation process. Therefore this enzymatic activity can be used to monitor the activity of hedgehog pathway inhibitors.
The C3H10T1/2 cells were grown in DMEM medium supplemented with 10% fetal bovine serum (FBS, Hyclone) at 37° C. with 5% CO2. 10000 cells were sown to each well of a 96-well microplate a day before the experiment and grown overnight. At the day of experiment, the inducing medium and inhibitor solutions were prepared as follows: the reference compound and testing compounds were serially diluted 1 to 3 and 1 to 10 in DMSO to seven concentrations with the eighth concentration being DMSO. A 10-fold dilution was prepared by mixing 10 μL of the DMSO dilution with 90 μL of fresh growing medium. […] Pre-sown cells were taken out from incubator and the medium was removed. To each well, 180 μL inducing medium was added and followed immediately with 20 μL of testing or reference compound dilutions. The testing compound concentrations are between 10 μM and 1 nM. The cells were then return to CO2 incubator to grow additional 5 days at 37° C.
(§2) After incubating for 5 days, the cells were taken out and intracellular alkaline phosphatase activity was tested. The alkaline phosphatase activity was measured as follows:
1) Preparation of Substrate Solution:
(§3) Solution A: A 0.5 mM MgCl2 (Sigma Prod. No. M-0250) solution was prepared.
(§4) After the pH value was adjusted to 9.8 with 5 M HCl at 37° C., the total volume was adjusted to 100 mL.
(§5) After it is completely dissolved the total volume was adjusted to 10 mL with the final concentration being 1 mM.
Substrate reaction medium: To 10 mL of solution B, 250 μL of solution A and 200 μL of solution C were added, and mixed well.
2) the Measurement of Intracellular Alkaline Phosphatase Activity:
(§6) After taking out the cells from the incubator, the cell culture medium was removed and cells were washed twice with PBS. 20 μL of lysis solution (0.2% Triton solution) was added to each well. After being shaken for 30 min at room temperature, each well of cells received 80 μL of substrate reaction medium. The microplate was placed immediately into a VariSkan Flashplate reader and absorbance at OD405 was read as background reading. The plate was replaced back to cell culture incubator at 37° C. for additional 30 min and the absorbance was read again using VariSkan Flash plate reader at OD405.
(§7) The data were analyzed by subtracting the background reading from the reading at 30 min, and the obtained numbers were plotted and analyzed with Prism 5 software (GraphPad). The phosphatase activity (calculated OD405) was plotted against the log concentration of testing compound, and the obtained plot was fitted with non-linear curve fitting equation to calculate IC50 values. The curve fitting equation is Y=Bottom+(Top−Bottom)/(1+10^((X−Log IC50))). X is the logarithm of concentration. Y is the measure of alkaline phosphatase activity (OD405).
(§8) The calculated IC50 value is a measurement of the inhibitory activity of compound to Hh pathway.

[2] = test system: Hedgehog Signaling Pathway; assay: SHH-induced differentiation of C3H10T1/2 cells into osteoblastic cells, intracellular alkaline phosphatase activity; format: cell-based, mouse; settings: Mus musculus, C3H 10T1/2, 120 h, 10 nM SHH-N, 5 days, alkaline phosphatase activity (OD405), read-out: IC50 values of compounds that inhibit Hh pathway
Procedure: as §1, with “SHH” for “SAG”, “C3H10T1/2” for “C3H/10T1/2”
The C3H10T1/2 cells were grown in DMEM medium supplemented with 10% fetal bovine serum (FBS, Hyclone) at 37° C. with 5% CO2. 10000 cells were sown to each well of a 96-well microplate a day before the experiment and grown overnight. […] The reference compound and testing compounds were serially diluted 1 to 3 and 1 to 10 in DMSO to seven concentrations with the eighth concentration being DMSO. A 10-fold dilution was prepared by mixing 10 μL of the DMSO dilutions with 90 μL of fresh growing medium. Pre-sown cells were taken out from incubator and the medium was removed. To each well, 180 μL of inducing medium containing 10 nM of SHH-N was added and followed immediately with 20 μL of 10× testing or reference compound dilutions. The testing compound concentrations are between 10 μM and 10 nM. The cells were then returned to CO2 incubator to grow additional 5 days at 37° C.
as §2
3) Preparation of Substrate Solution:
as §3, §4, §5
Substrate reaction medium: to 10 mL of solution B, 250 μL of solution A and 200 μL of solution C were added, and mixed well.
4) The Measurement of Intracellular Alkaline Phosphatase Activity:
as §6
as §7, with “Y=Bottom+(Top−Bottom)/(1+10^(X−Log IC50)).” for “Y=Bottom+(Top−Bottom)/(1+10^((X−Log IC50))).”
as §8

Structure (SMILES) | IC50 [1] [nM] | IC50 [2] [nM]
Cc1cc(-c2ccc(C(F)(F)F)cc2)ccc1C(=O)Nc1cccc(-c2nc3ccccc3[nH]2)c1 [Example 45, N-(3-(1H-benzo[d]imidazol-2-yl)phenyl)-3-methyl-4′-(trifluoromethyl)biphenyl-4-carboxamide] | 284 | 20
Cc1cc(-c2ccc(C(F)(F)F)cc2)ccc1C(=O)Nc1cccc(-c2cn3ccccc3n2)c1 [Example 56, N-(3-(imidazo[1,2-a]pyridin-2-yl)phenyl)-3-methyl-4′-(trifluoromethyl)biphenyl-4-carboxamide] | 2370 | 189
Cc1c(NC(=O)c2ccc(N3C[C@@H](C)O[C@@H](C)C3)nc2)cccc1-c1nc2ccccc2[nH]1 [Example 65, N-(3-(1H-benzo[d]imidazol-2-yl)-2-methylphenyl)-6-((2S,6R)-2,6-dimethylmorpholino)nicotinamide] | 522 | 501
Cc1cc(-c2ccc(C(F)(F)F)cc2)ccc1C(=O)Nc1ccc(Cl)c(-c2nnc3cnccn23)c1 [Example 54, N-(3-([1,2,4]triazolo[4,3-a]pyrazin-3-yl)-4-chlorophenyl)-3-methyl-4′-(trifluoromethyl)biphenyl-4-carboxamide] | > 10000 | > 10000
C[C@@H]1CN(c2ccc3c(=O)n(-c4ccc(Cl)c(-c5nc6ccccc6[nH]5)c4)cnc3c2)C[C@H](C)O1 [Example 34, 3-(3-(1H-benzo[d]imidazol-2-yl)-4-chlorophenyl)-7-((2S,6R)-2,6-dimethylmorpholino)quinazolin-4(3H)-one] | 263 | 162
O=C(Nc1ccc(Cl)c(-c2nc3ccccc3[nH]2)c1)c1ccc(-c2ccc(C(F)(F)F)cc2)cc1O [Example 16, N-(3-(1H-benzo[d]imidazol-2-yl)-4-chlorophenyl)-3-hydroxy-4′-(trifluoromethyl)biphenyl-4-carboxamide] | > 10000 | > 10000
COc1ccc(NC(=O)c2ccc(-c3ccc(C(F)(F)F)cc3)cc2C)cc1-c1nc2ccccc2[nH]1 [Example 76, N-(3-(1H-benzo[d]imidazol-2-yl)-4-methoxyphenyl)-3-methyl-4′-(trifluoromethyl)biphenyl-4-carboxamide] | > 10000 | > 10000
Cc1cc(-c2ccc(C(F)(F)F)cc2)ccc1C(=O)Nc1ccc(F)c(-c2nc3ccccc3[nH]2)c1 [Example 74, N-(3-(1H-benzo[d]imidazol-2-yl)-4-fluorophenyl)-3-methyl-4′-(trifluoromethyl)biphenyl-4-carboxamide] | 191 | 4.5

The next molecules have a lower IC50 [1] than those just listed; values first:

IC50 [1] [nM] | IC50 [2] [nM] | Structure (SMILES)
26 | 5.9 | Cc1cc(-c2ccc(S(C)(=O)=O)cc2)ccc1C(=O)Nc1ccc(Cl)c(-c2nc3ccccc3[nH]2)c1 [Example 5, N-(3-(1H-benzo[d]imidazol-2-yl)-4-chlorophenyl)-3-methyl-4′-(methylsulfonyl)biphenyl-4-carboxamide]
156 | 43 | CC(=O)c1ccc(-c2ccc(C(=O)Nc3ccc(Cl)c(-c4nc5ccccc5[nH]4)c3)c(C)c2)cc1 [Example 9, N-(3-(1H-benzo[d]imidazol-2-yl)-4-chlorophenyl)-3-methyl-4′-acetylbiphenyl-4-carboxamide]
139 | 18 | O=C(Nc1ccc(Cl)c(-c2nc3ccccc3[nH]2)c1)C1CCC(c2ccccc2)CC1 (centres unmarked) [Example 44, N-(3-(1H-benzo[d]imidazol-2-yl)-4-chlorophenyl)-4-phenylcyclohexanecarboxamide]
153 | 18 | O=C(Nc1ccc(Cl)c(-c2nc3ccccc3[nH]2)c1)c1ccc(-c2ccc(F)cc2)cc1 [Example 12, N-(3-(1H-benzo[d]imidazol-2-yl)-4-chlorophenyl)-4′-fluorobiphenyl-4-carboxamide]
99 | 32 | Cc1cc(-c2ccoc2)ccc1C(=O)Nc1ccc(Cl)c(-c2nc3ccccc3[nH]2)c1 [Example 41, N-(3-(1H-benzo[d]imidazol-2-yl)-4-chlorophenyl)-2-methyl-4-(furan-3-yl)benzamide]
